What is called ED50 is the dose at which the effect has come halfway, by size or by number of responders.

Results on 7 compounds are retold here after patent US4277605A, “Chemical compounds” (priority 1980, dated 1981).

The nature of data set [1]: Antidiarrheal activity, castor oil test in rats (modified Niemegeers). Type of data set: in vivo, male Sprague-Dawley rats. Particulars: for ED50: Rattus norvegicus; for separation between antidiarrheal and analgetic activity (in words): from RAS; for RAS (Relative Antidiarrheal Specificity): Analgetic ED50 divided by the Antidiarrheal ED50, oral; for Antidiarrheal Activity ED50 (95% Confidence Limits) Castor Oil Test in Rats: 60 min. As for the experimental part: A modification of the castor oil test described by Niemegeers [Arzneim.-Forsch., 22, 516-518 (1972)] was used. Male Sprague-Dawley rats (180-220 g) were dosed orally (in one case, subcutaneously) with a test compound or vehicle 1 hour before receiving a standard dose of castor oil orally (3 ml/rat). The rats were individually caged and examined for the presence of diarrhea hourly. Control animals had 100% incidence of diarrhea 1 hour after administering the castor oil. The percentage of rats protected from diarrhea was calculated 1 hour after the castor oil. Six rats were used per dose level.
(§1) Morphine sulfate was dissolved in distilled water.

Data set [2] can be described thus: Analgetic activity, radiant heat method (Rat Tail Flick Test). Format: in vivo, male Sprague-Dawley rats. Particulars: Table I, oral, rats; for ED50: Rattus norvegicus, read-out: Analgetic Activity Rat Tail Flick ED50 (95% Confidence Limits). On the procedure:
Analgetic activity was determined by the radiant heat method (Rat Tail Flick Test) of D'Amour and Smith [J. Pharm. Exp. Ther., 72, 74-79 (1941)] in Sprague-Dawley male rats (140-180 g). An all or none response was used to determine the dose of test material which produced at least a 100 percent increase in predose response time in 50 percent of the test animals (ED50). The ED50 values were based on at least 3 doses per drug (6 rats per dose level) and calculated by means of the Finney Dose Response procedure [Finney, D. J., Probit Analysis, University Press, Cambridge, England (1971)].
as §1
On the technique in general: Thermal pain tests record how soon the animal reacts.

Data set [3] can be described thus: Suppression of body weight loss due to abstinence in withdrawn morphine-dependent rats. Particulars: oral administration, FIG. 1.
A short description of data set [4]: Suppression of withdrawal jumping due to abstinence in withdrawn morphine-dependent mice.
The conditions of data set [5]: high oral doses (40-60 mg); cited from earlier work.
For data set [6] the following is noted: even in its salt forms; cited from earlier work.
The mark [7] stands for this setting: Table II, d,l-Ia(1) subcutaneous, Ib(1) isomers oral.
Setting [8] is: Table I, oral, rats, 1 hour after castor oil, read-out: Antidiarrheal Activity Castor Oil Test in Rats ED50 (95% Confidence Limits).
The mark [9] stands for this setting: Table II, separate test, oral administration.

`CN1CC[C@]23CCC(=O)C[C@@H]2[C@H]1Cc1ccc(O)cc13` (relative stereo) [d,l-Ia(1), d,l-3-Hydroxy-7-oxo-N-methylisomorphinan]: in data set [1] (sc, 1 h, Table II, separate test, subcutaneous administration, read-out: Antidiarrheal Activity ED50 (95% Confidence Limits) Castor Oil Test in Rats), the ED50 was determined as 0.56 mg/kg. Besides, the “antidiarrheal potency (in words)” value in data set [1] (setting [7]) is “potent antidiarrheal agent”.

In the case of `CN1CC[C@]23CCC(=O)C[C@H]2[C@H]1Cc1ccc(O)cc13` (relative stereo) [d,l-Ib(1), d,l-3-Hydroxy-7-oxo-N-methylmorphinan], the ED50 was 1.08 mg/kg in data set [1] (1 h, Table II, separate test, oral administration, read-out: Antidiarrheal Activity ED50 (95% Confidence Limits) Castor Oil Test in Rats); 1.41 mg/kg in data set [1] (setting [8]); more than 150 mg/kg in data set [2]. Besides, in data set [1] (oral, rats), the “separation between antidiarrheal and analgetic activity (in words)” value was “excellent separation between antidiarrheal and analgetic activity”. Besides, the “prevention of body weight loss due to morphine withdrawal / ability to substitute for morphine (in words)” value in data set [3] was “no significant prevention of body weight loss”. Further, the “Percent Suppression of Withdrawal Jumping” value in data set [4] (9 mg/kg po) and in data set [4] (27 mg/kg po) was 0% each time. For the same compound, the “suppressant action on withdrawal jumping (in words)” value in data set [4] (oral, doses as high as 27 mg/kg) is “No suppressant action”.

Consider `CCOC(=O)C1(c2ccccc2)CCN(CCC(C#N)(c2ccccc2)c2ccccc2)CC1` [Diphenoxylate], for which the “RAS (Relative Antidiarrheal Specificity)” value in data set [1] (rats) was 102. Also, the values for the ED50 in data set [1] (setting [8]) and in data set [2] were 0.11 mg/kg and 11.2 mg/kg, respectively. Also, the “antidiarrheal potency (in words)” value in data set [1] (Table I, oral, rats) is on record as “most potent antidiarrheal drug studied”. Also, the “improvement of RAS over morphine” value in data set [1] (oral, rats) is recorded as “tenfold”. Further, in data set [5], the typical opioid effects entry is “euphoria, suppression or morphine abstinence, and a morphine-like physical dependence after chronic administration”. Also, the “solubility (in words)” value in data set [6] was “highly insoluble”. Also, the “suppression of withdrawal jumping (in words)” value in data set [4] (oral dose of 9 mg/kg) is reported as “suppressed withdrawal jumping”.

Consider `CN1CC[C@]23c4c5ccc(O)c4O[C@H]2[C@@H](O)C=C[C@H]3[C@H]1C5` [Morphine SO4], for which the “RAS (Relative Antidiarrheal Specificity)” value in data set [1] (rats) stood at 14. Further, in data set [1] (Table I, oral, rats, 1 hour after castor oil), the “Antidiarrheal Activity Castor Oil Test in Rats ED50 (95% Confidence Limits)” value is on record as 2.2 (1.5-3.1) mg/kg. Moreover, the “separation between antidiarrheal and analgetic activity (in words)” value in data set [1] (oral, rats) is “poor separation between antidiarrheal and analgetic activity”. Besides, the “Analgetic Activity Rat Tail Flick ED50 (95% Confidence Limits)” value in data set [2] is recorded as 30.5 (26.3-35.0) mg/kg. Also, the “ED50, Suppression of Withdrawal Jumping” value in data set [4] (sc, limits (0.9-3.1) printed on next line) is reported as 1.8.

Take `COc1ccc2c3c1O[C@H]1C(=O)CC[C@@]4(O)[C@@H](C2)N(C)CC[C@]314` [Oxycodone]: the “Percent Suppression of Withdrawal Jumping” value in data set [4] (10 mg/kg po) is 100%.

For the compound `CN1CC[C@]23CCC(=O)C[C@H]2[C@H]1Cc1ccc(O)cc13` [d-Ib(1), d-3-Hydroxy-N-methyl-7-oxomorphinan], the “Antidiarrheal Activity ED50 (95% Confidence Limits) Castor Oil Test in Rats” value in data set [1] (setting [9]) is recorded as less than 1.

`CN1CC[C@]23CCC(=O)C[C@H]2[C@H]1Cc1ccc(O)cc13` [l-Ib(1), l-3-Hydroxy-N-methyl-7-oxomorphinan]: the “Antidiarrheal Activity ED50 (95% Confidence Limits) Castor Oil Test in Rats” value in data set [1] (setting [9]) was 0.64 (0.46-0.86). In addition, the “antidiarrheal potency (in words)” value in data set [1] (setting [7]) is given as “most potent isomer”.
